# Experimental data taken from patent publication US7074807B2, “Compositions and methods for inducing cell death” (Georgetown University, priority 1998, dated 2006).
# Tests used:
# Format in all cases: cell-based, human
# MDA-MB 231 cells = test: Protein tyrosine phosphorylation (anti-PY immunoprecipitation/immunoblot); conditions: 10 mM, 15 min to 2 h
# Experimental: FIG. 2. Effects of tempol and tempo on protein tyrosine phosphorylation. Subconfluent cultures were grown in serum-free medium overnight, followed by treatment with tempol (10 mM) or tempo (10 mM) for indicated times and lysis. Normalized protein contents (1 mg) were immunoprecipitated with agarose-conjugated anti-PY MAb, and then immunoblotted with anti-PY MAb. Data shown is representative of two independent experiments. UT, untreated cells grown overnight in serum-free medium.
# Cell Culture, Treatments with Tempol and Tempo, and Preparation of Cell Lysates—MDA-MB 231 human breast cancer cells were grown to near confluence in 75 cm^2 tissue culture flasks in Improved Minimum Essential Medium (IMEM) (Cellgro) containing 10% fetal bovine serum (FBS) and 2 mM L-glutamine in a humidified atmosphere of 5% CO2: 95% air at 37° C. Cells were trypsinized and plated into a 150 mm tissue culture dish (two dishes per flask) overnight in medium containing 10% FBS followed by two washes with phosphate buffer saline (PBS). […]
# Immunoprecipitation and Immunoblotting—Whole cell lysate (1 mg) was immunoprecipitated with the appropriate agarose-conjugated antibody (1 ug/ml of lysis buffer) overnight at 4° C. with constant agitation. […] The bands of interest were quantified by ImageQuant software version 3.3 (Molecular Dynamics Personal Densitometer, Sunnyvale, Calif.). […]
# ERK1 = ERK1 activity (MBP phosphorylation of ERK1 immunoprecipitates); conditions: 10 mM, 2 h, MDA-MB 231 cells
# Experimental: FIGS. 4A, 4B. Tempol stimulates ERK1 activity. […] WCL (1 mg) were immunoprecipitated with agarose-conjugated anti-ERK1 antibody, and in vitro MBP phosphorylation assay was performed as described in experimental procedures. The incorporation of γ^32P into MBP was determined in a filter binding assay 4A. In other independent experiments, the reaction products were electrophoresed on 15% SDS-PAGE and MBP (at ˜18 kDa) was visualized by autoradiography 4B. Cont/Control, cells grown overnight in serum-free medium, and treated with 1% ethanol for 2 h.
# ERK and SAPK/JNK Activities—Whole cell lysates prepared as described above were immunoprecipitated (1 mg) with an agarose conjugated anti-ERK1 antibody or an agarose conjugated anti-JNK1 antibody for 2 h at 4° C. with constant agitation. The immune-complexes were washed 3 times in lysis buffer and once in KBB as mentioned earlier. ERK or JNK activity assay was carried out according to manufacturer's procedures (UBI). […] The radioactive filters were washed and counted as described above. […] The radiolabeled GST-cJun fusion protein was detected by autoradiography.
# caspase-3 in DU145 cells = test: Caspase-3 activity assay (DEVD-AFC); conditions: 2.5 mM, 2 hr
# Experimental: (§1) FIG. 10 illustrates the effect of tempo on caspase-3 activity in prostate cancer cell lines. Cells were treated with 2.5 mM tempo for indicated times in duplicate or triplicate as described in legend to FIG. 2. Representative data from one experiment are shown. Experiments was repeated 2–3 times.
# (§2) ApoAlert CPP32 activity/caspase-3 assay kit was used to measure caspase-3 activity in cells according to manufacturer's instructions (Clontech). Briefly, after tempo treatment, cells were washed 3 times with ice-cold PBS and lysed in Clontech cell lysis buffer for 10 min on ice followed by microcentrifugation at 15,000× g for 5 min. Whole cell lysate (50 ug) was incubated for 1 h at 37° C. in caspase-3 reaction mixture containing 10 mM DTT in 2× reaction buffer, 50 uM CPP32 substrate, DEVD-AFC. The amounts of 7-amino-4 trifluoromethyl coumarin (AFC) released were detected by spectrofluorometer (Hitachi F4500) with excitation at 400 nm and emission at 505 nm.
# caspase-3 in LNCaP cells = test: Caspase-3 activity assay (DEVD-AFC); conditions: 2.5 mM, 24 hr
# Experimental: as §1, §2
# caspase-3 in PC3 cells = test: Caspase-3 activity assay (DEVD-AFC); conditions: 2.5 mM, 24 hr
# Experimental: as §1, §2
SMILES,protein tyrosine phosphorylation (MDA-MB 231 cells),increase in the enzymatic activity of ERK1 (ERK1),level of caspase-3 activity (caspase-3 in DU145 cells),increase in caspase activity (caspase-3 in LNCaP cells),level of caspase-3 activity (caspase-3 in PC3 cells)
"CC1(C)CCCC(C)(C)N1[O] [tempo, 2,2,6,6-tetramethylpiperidine-N-oxyl]",conspicuous increase,no change in ERK1 activity,~170%,~12 fold,~200%
"CC1(C)CC(O)CC(C)(C)N1[O] [tempol, 4-hydroxy-tempo, reference compound]",minimal protein tyrosine phosphorylation,Approximately 3 fold,–,–,–
